Measurements reported in patent US20250170239A1, “CELLULAR REPROGRAMMING BY TARGETING THE GOLGI APPARATUS” (MUSC Foundation for Research Development, priority 2023, published 2025).

Legend:
Format in all cases: cell-based, mouse
Pmel T cells = experiment: Golgi stress (monensin, H2O2, thapsigargin) in Pmel T cells: GM130, ROS, Golgi dispersion; set-up: cell death / mitochondrial ROS / monensin-induced cell death and mitochondrial ROS accumulation / ER stress (p-PERK): dose or concentration left out as unconfirmed
Description: (FIG. 21A) Levels of intracellular glutathione assessed using FACS by employing ThiolTracker Violet dye in control CD19 CAR-T cells or CAR-T cells overexpressing Cbs (CbstdCD19-CAR-T) (n=3). (FIG. 21B) 12 hour Thapsigargin (700 nM) treatment was used to induce ER stress in WT T cells, Cbs-KO T cells, and Cbs-KO T cells+H2S. Levels of phosphorylated PERK were assessed by FACS (n=3). (FIG. 21C) Pmel T cells were treated with either Thapsigargin (700 nM) or Monensin (1 mM) for 12 hours, followed by staining for phosphorylated PERK (p-PERK) and GM130 to assess ER stress and Golgi stress, respectively (n=4). (FIG. 21D) Activated Pmel T cells were treated for 12 hours with either vehicle control or 1 mM Monensin (“+Golgi stress”) before being stained for giantin to assess Golgi dispersion. […] (FIG. 21E) Representative confocal microscopy images of mitochondria (Tom20) and Golgi (giantin) in human PBMCs treated with vehicle control or 0.5 mM GYY4137.
T cells were stained with conjugated for surface markers as described in the figure legends followed by fixation and permeabilization with BD Cytofix/Cytoperm Kit (BD Biosciences, 554722). The Golgi was labeled using anti-Giantin antibody (Abcam, ab80864) as the primary antibody followed by secondary antibody staining with anti-Rabbit IgG conjugated to Alexa Fluor 488 (ab150077). The cells were then imaged using ImageStreamX mark II imaging flow-cytometer and analyzed using IDEAS 6.2. Spectral overlap was compensated for using single-stain controls. Image analysis for Golgi area was performed using the protocol established by Eisenberg-Lerner et al.44 First, cells were gated on single cells using the area and aspect ratio features, and then gated on focused cells using the Gradient RMS feature. Golgi area was calculated using the anti-Giantin fluorescence signaling, using on the Threshold_50 mask that includes the 50% highest intensity pixels of the Golgi staining, with a mask defined as Area Threshold 50 was considered as the Golgi area to compare between the relevant conditions.

Prdx4 knockdown T cells = experiment: Prdx4 siRNA knockdown Pmel T cells under Golgi/oxidative stress
Description: (FIG. 22A) Pmel T cells were activated for 3 days before treatment with vehicle or 50 mM H2O2 for 6 hrs. Prdx4-Golgi colocalization was assessed by PLA using mouse anti-Giantin and rabbit anti-Prdx4 antibodies. (FIG. 22B) Activated Pmel T cells treated with vehicle or 50 mM H2O2 for 6 hrs or 24 hrs with Monensin (1 mM). PLA assay was performed using anti-Giantin and anti-Prdx4 antibodies. (FIG. 22C) Experimental design using Prdx4-targeted siRNA to silence expression of Prdx4 in Pmel T cells. (FIG. 22D) GM130 expression assessed under control versus Monensin (1 μM) conditions in T cells treated with control-siRNA or Prdx4-siRNA. (FIG. 22E) GM130 expression assessed under control versus 50 mM H2O2 conditions in T cells treated with control-siRNA or Prdx4-siRNA+/−0.5 mM GYY4137. (FIG. 22F) Protein translation assessed in Pmel T cells activated+/−GYY4137 and treated with control-siRNA or Prdx4-siRNA. (FIG. 22G) GM130 expression in Pmel T cells treated with vehicle, GYY4137, or Catalase (10 μg/mL). (FIGS. 22H and 22I) Site directed mutagenesis performed to mutate cysteine-54 of the Prdx4 gene. Prdx4-targeted shRNA was used to knock down expression of Prdx4 in Jurkat T cells, followed by transfection with plasmid containing wildtype or mutated Prdx4. (FIG. 22I) GM130 expression assessed after treatment with 50 mM H2O2+/−GYY4137. (FIG. 22J) B16-F10 tumors were injected s.c. into flanks of Pmel mice and grown to ˜100 mm2. TILs and T cells from tumor-draining lymph nodes were isolated via Ficoll spin followed by magnetic bead positive selection. FACS analysis of Prdx4 expression in TILs gated on PD1loLag3lo vs PD1hiLag3hi. (FIG. 22K) Lentiviral supernatant was generated using GFP-tagged control plasmid or GFP-tagged Prdx4-overexpression plasmid. Pmel T cells were transduced with control or Prdx4 lentivirus. Pmel T cells overexpressing Prdx4 and control T cells were treated with H2O2 (50 mM) followed by staining with anti-GM130.
Given the delicate redox balance necessary for the native disulfide bonds, it was postulated that a localized mechanism for the detection and elimination of ROS produced during the oxidative folding process may require Prdx4. Thus, it was hypothesized that ER and Golgi network stress mitigated by H2S is mediated through the Prdx4 localization and activity in these organelles. First, it was established if Prdx4 also localizes within the Golgi apparatus in T cells using a proximity ligation assay (PLA), a tool that allows in situ detection of endogenous proteins with high specificity and sensitivity, with antibodies directed against Giantin (a conserved Golgi membrane protein) and Prdx4. […] Next, using siRNA targeting Prdx4, expression of Prdx4 in CD8+ Pmel T cells was knocked down (FIG. 22C, FIGS. 23A and 23B). The cells were then subjected to conditions of oxidative and Golgi stress in the presence or absence of H2S treatment. […] Then, to determine whether the protective effect of H2S on Golgi stress is dependent on the presence of Prdx4, Golgi stress was induced in the presence or absence of H2S with control (siCtl) and Prdx4 knockdown (siPrdx4) T cells.

CD8+ Pmel T cells = experiment: RT-PCR of CBS and CSE in cytokine-treated CD8+ Pmel T cells; conditions: CD8+ Pmel T cells activated 3 days in presence of cytokine
Source text: (FIG. 13A) Pmel T cells were stained with trypan blue stain on day 3 following activation with gp100+IL2 (100 IU/ml) and treated with concentrations of GYY4137 (n=5). (FIG. 13B) Gating strategy for FACS analysis. Pmel splenocytes stained with LIVE/DEAD Fixable Yellow dye and anti-CD8 PE-Cy7. All FACS samples were first gated on the lymphocyte population based on FSA vs SSA. Single cells were gated using FSA vs. FSH. Live cells were gated using live/dead exclusion dye. CD8+ cells were gated by selecting the positive population. (FIG. 13C) Pmel T cells were stimulated with gp100 tumor antigen and treated with either vehicle or GYY4137 (0.5 mM) and analyzed by FACS for expression of CD62L and CD44 at day 0, day 2, day 4, and day 6. […] (FIG. 13F) CD8+ Pmel T cells were activated for 3 days in the presence of various cytokines and analyzed for mRNA expression of CBS and CSE. […] Splenocytes were activated with anti-CD3 and anti-CD28 antibodies an analyzed for expression of Cbs by western blot. (FIG. 13H) Splenocytes from WT and Cbs-KO mice were expanded with either IL-2 or expanded with IL-15 (10 ng/ml) with or without addition of H2S to the Cbs-KO cells and analyzed for expression of CD62L and CD44 by FACS (n=3). […] At day 14, the mice were bled and the frequency of CD3+ T cells was assessed by FACS (n=5). […] (FIG. 13K) Cells were analyzed using FACS for expression of PD1, TIM3, Lag3, and CD38 (n=3). […]

For `C/C=C(/C)C(=O)O[C@H]1C(C)=C2[C@H]([C@@H]1OC(=O)CCCCCCC)[C@@](C)(OC(C)=O)C[C@H](OC(=O)CCC)[C@@]1(O)[C@H]2OC(=O)[C@@]1(C)O` [Thapsigargin], the “Golgi stress (GM130)” value (Pmel T cells; Thapsigargin (700 nM) 12 hours) was “nor did Thapsigargin induced Golgi stress”.
In the case of `CC[C@@]1([C@@H]2O[C@@H]([C@H]3O[C@@](O)(CO)[C@H](C)C[C@@H]3C)C[C@@H]2C)CC[C@H]([C@]2(C)CC[C@]3(C[C@H](O)[C@@H](C)[C@@H]([C@@H](C)[C@@H](OC)[C@H](C)C(=O)O)O3)O2)O1` [monensin], the “decrease in GM130 expression, Prdx4 knockdown T cells” value (Prdx4 knockdown T cells; Monensin (1 μM)) is reported as “further exacerbated”, the “ER stress (p-PERK)” value (Pmel T cells) is reported as “did not induce ER stress” and the cell death (Pmel T cells) is reported as “induced cell death”. The “mitochondrial ROS” value (Pmel T cells) was “cellular accumulation of mitochondrial ROS”, the “Golgi dispersion (Golgi area, ImageStream)” value (Pmel T cells; 1 mM Monensin 12 hours) was “Golgi dispersion significantly increased” and the “intracellular ROS (DCFDA)” value (Pmel T cells; 1 mM monensin) was “significant increase in ROS (DCFDA)”.
In the case of “IL6: cytokine that plays a key role in memory formation”, the “mRNA expression of CBS and CSE” value (CD8+ Pmel T cells) is reported as “significantly increased expression of both CBS and CSE”.
“IL15: cytokine known to induce the Tcm phenotype in T cells” was tested, and the “mRNA expression of CBS and CSE” value (CD8+ Pmel T cells) was “significantly increased expression of both CBS and CSE”.
With catalase the “protection against Golgi stress (GM130), Prdx4 knockdown T cells” value (Prdx4 knockdown T cells; Catalase (10 μg/mL)) was “protection against Golgi stress could be rescued”.
